Values after ≈ are worked out from the molar mass of the structure shown. Read-outs that look alike come from different tables or passages of the source.
Key:
Experiment in all cases: in vitro antibacterial activity, agar dilution method (MIC)
Format in all cases: cell-based
Escherichia Coli = conditions: Escherichia coli, BHI agar, 20-24 hours, read-out: MIC
Procedure: (§1) Compounds 1 to 8 were evaluated for antibacterial activity by the agar dilution method to determine the degree of in vitro susceptibility of aerobic microorganisms to antimicrobial agents. The test medium was Brain Heart Infusion (BHI) agar. The antibacterial agent was dissolved at a concentration of 2,000 ug/mL. Test plates were then prepared, usually 12 two-fold dilutions. After adding the sample to the plates, 10 mL of cooled BHI agar medium was added to each plate. The organisms were grown overnight in BHI broth (Difco) in a 35°-37° C. incubator.
(§2) On the day of testing, the bacterial suspensions were diluted 1:100 in sterile distilled water, except for a few slow-growing organisms (usually Micrococcus and Streptococcus) which were diluted 1:10. The plate was then inoculated with approximately 10^4 organisms. This was incubated in a 35°-37° C. incubator for 20-24 hours. Thereafter, the plates were read to determine the minimum inhibitory concentration (MIC) defined as the lowest concentration of drug yielding no growth on the plate, a slight haze, or sparsely isolated colonies on the inoculum spot as compared to the growth control.

Pseudomonas Cepacia = conditions: Burkholderia cepacia; strain 296I; BHI agar, 20-24 hours; read-out: MIC
Procedure: as §1, §2

[1] = system: Staphylococcus Epidermidis; conditions: Staphylococcus epidermidis, strain 3519; BHI agar, 20-24 hours; read-out: MIC
Procedure: (§3) The test medium was Brain Heart Infusion (BHI) agar. The antibacterial agent was dissolved at a concentration of 2,000 ug/mL. Test plates were then prepared, usually 12 two-fold dilutions. After adding the sample to the plates, 10 mL of cooled BHI agar medium was added to each plate. The organisms were grown overnight in BHI broth (Difco) in a 35°-37° C. incubator.
as §2

Enterococcus Faecium = conditions: Enterococcus faecium, ATCC8043, strain ATCC 8043; BHI agar, 20-24 hours; read-out: MIC
Procedure: as §3, §2

Pseudomonas Aeruginosa = conditions: Pseudomonas aeruginosa, BHI agar, 20-24 hours, read-out: MIC
Procedure: as §3, §2

Haemophilus Influenzae = conditions: Haemophilus influenzae, BHI agar, 20-24 hours
Procedure: as §3, §2

Staphylococcus Aureus = conditions: Staphylococcus aureus, BHI agar, 20-24 hours, read-out: MIC
Procedure: as §3, §2

Acinetobacter Sp = conditions: Acinetobacter, strain CMX 669; BHI agar, 20-24 hours; read-out: MIC
Procedure: as §3, §2

Streptococcus Agalactiae = conditions: Streptococcus agalactiae, strain CMX 508; BHI agar, 20-24 hours; read-out: MIC
Procedure: as §3, §2

Streptococcus Bovis = conditions: Streptococcus equinus
Procedure: as §3, §2

Providencia Stuartii = conditions: Providencia stuartii; strain CMX 640; BHI agar, 20-24 hours; read-out: MIC
Procedure: as §3, §2

Streptococcus Pyogenes = conditions: Streptococcus pyogenes, BHI agar, 20-24 hours, read-out: MIC
Procedure: as §3, §2

Micrococcus Luteus = conditions: Micrococcus luteus, BHI agar, 20-24 hours, read-out: MIC
Procedure: as §3, §2

Klebsiella Pneumoniae = conditions: Klebsiella pneumoniae, ATCC8045, strain ATCC 8045; BHI agar, 20-24 hours; read-out: MIC
Procedure: as §3, §2

Enterobacter Aerogenes = conditions: Klebsiella aerogenes, ATCC13048, strain ATCC 13048; BHI agar, 20-24 hours; read-out: MIC
Procedure: as §3, §2

`CCC1OC(=O)CC(O)C(C)C(OC2OC(C)C(O)C(N(C)C)C2O)C(CC=O)CC(C)C(N(C)C)C=CC(C)=CC1COC(C)=O` (stereo not shown) [Example 4, [9R]-23-O-Acetyl-9-deoxo-9-N,N-dimethylamino-5-O-mycaminosyl-tylonide] gave an MIC (Escherichia Coli; strain DC-2) of 25 µg/mL (≈ 37.4 µM), an MIC (Escherichia Coli; strain H560) of 12.5 µg/mL (≈ 18.7 µM) and an MIC (Escherichia Coli; strain JUHL) of 50 µg/mL (≈ 74.8 µM). For the same compound, the MIC (Escherichia Coli; strain KNK 437) was 50 µg/mL (≈ 74.8 µM), the MIC (Escherichia Coli; strain SS) was 0.78 µg/mL (≈ 1.17 µM) and the MIC (Pseudomonas Cepacia) was > 100 µg/mL. It also gave an MIC [1] of 0.78 µg/mL (≈ 1.17 µM), an MIC (Enterococcus Faecium) of 0.39 µg/mL (≈ 0.583 µM) and an MIC (Pseudomonas Aeruginosa; strain A5007) of 100 µg/mL (≈ 150 µM). For the same compound, the MIC (Pseudomonas Aeruginosa; strain BMH10) was 100 µg/mL (≈ 150 µM), the MIC (Pseudomonas Aeruginosa; strain K799/61) was 3.1 µg/mL (≈ 4.63 µM) and the MIC (Pseudomonas Aeruginosa; strain K799/WT) was 100 µg/mL (≈ 150 µM). The MIC (Haemophilus Influenzae; ATCC9795, strain ATCC 9795, read-out: MIC) was 1 µg/mL (≈ 1.5 µM), the MIC (Haemophilus Influenzae; ATCC10211, strain ATCC 10211) was 2 µg/mL (≈ 2.99 µM) and the MIC (Haemophilus Influenzae; ATCC19418, strain ATCC 19418) was 2 µg/mL (≈ 2.99 µM). The MIC (Haemophilus Influenzae; ATCC43095, strain ATCC 43095) was 2 µg/mL (≈ 2.99 µM), the MIC (Haemophilus Influenzae; strain 503B) was 2 µg/mL (≈ 2.99 µM) and the MIC (Haemophilus Influenzae; strain 504, read-out: MIC) was 0.25 µg/mL (≈ 0.374 µM). It also gave an MIC (Haemophilus Influenzae; strain 519A, read-out: MIC) of 1 µg/mL (≈ 1.5 µM), an MIC (Haemophilus Influenzae; strain 566A, read-out: MIC) of 1 µg/mL (≈ 1.5 µM) and an MIC (Haemophilus Influenzae; strain 588A) of 2 µg/mL (≈ 2.99 µM). For the same compound, the MIC (Haemophilus Influenzae; strain 747C) was 2 µg/mL (≈ 2.99 µM), the MIC (Haemophilus Influenzae; strain 751, read-out: MIC) was 8 µg/mL (≈ 12 µM) and the MIC (Haemophilus Influenzae; strain 1177, read-out: MIC) was 0.25 µg/mL (≈ 0.374 µM). It also gave an MIC (Haemophilus Influenzae; strain 1435, read-out: MIC) of 1 µg/mL (≈ 1.5 µM), an MIC (Haemophilus Influenzae; strain DILL AMP R) of 2 µg/mL (≈ 2.99 µM) and an MIC (Haemophilus Influenzae; strain SOL AMP R) of 2 µg/mL (≈ 2.99 µM). It also gave an MIC (Haemophilus Influenzae; strain SPK AMP R) of 2 µg/mL (≈ 2.99 µM), an MIC (Staphylococcus Aureus; ATCC6538P, strain ATCC 6538P) of 0.78 µg/mL (≈ 1.17 µM) and an MIC (Staphylococcus Aureus; NCTC10649, strain NCTC 10649) of 0.78 µg/mL (≈ 1.17 µM). For the same compound, the MIC (Staphylococcus Aureus; strain 45) was 0.78 µg/mL (≈ 1.17 µM), the MIC (Staphylococcus Aureus; strain 45 RAR2) was 1.56 µg/mL (≈ 2.33 µM) and the MIC (Staphylococcus Aureus; strain 642A) was 1.56 µg/mL (≈ 2.33 µM). For the same compound, the MIC (Staphylococcus Aureus; strain A5177) was 0.78 µg/mL (≈ 1.17 µM), the MIC (Staphylococcus Aureus; strain CMX 553) was 1.56 µg/mL (≈ 2.33 µM) and the MIC (Acinetobacter Sp) was 6.2 µg/mL (≈ 9.27 µM). For the same compound, the MIC (Streptococcus Agalactiae) was 0.1 µg/mL (≈ 0.15 µM), the MIC (Streptococcus Bovis) was ≤ 0.02 µg/mL and the MIC (Providencia Stuartii) was > 100 µg/mL. The MIC (Streptococcus Pyogenes; strain 930 CONST) was > 100 µg/mL, the MIC (Streptococcus Pyogenes; strain 2548 INDUC) was 0.78 µg/mL (≈ 1.17 µM) and the MIC (Streptococcus Pyogenes; strain EES61) was 0.1 µg/mL (≈ 0.15 µM). It also gave an MIC (Micrococcus Luteus; ATCC4698, strain ATCC 4698) of 0.39 µg/mL (≈ 0.583 µM), an MIC (Micrococcus Luteus; ATCC9341, strain ATCC 9341) of 0.2 µg/mL (≈ 0.299 µM) and an MIC (Klebsiella Pneumoniae) of 50 µg/mL (≈ 74.8 µM). It also gave an MIC (Enterobacter Aerogenes) of 100 µg/mL (≈ 150 µM).

From US5140014A (Abbott Laboratories, priority 1989, dated 1992)
